Test results published in patent US8450354B2, “Substituted imidazo[1,2-b]pyridazine derivatives, pharmaceutical compositions, and methods of use as β-secretase inhibitors” (High Point Pharmaceuticals, LLC, priority 2010, dated 2013).

Experiments:
BACE-1 enzyme = target: T1, BACE-1 enzyme (Homo sapiens, UniProt P56817); experiment: BACE Fluorescence Resonance Energy Transfer (FRET) Assay; type: biochemical; settings: pH 4-4.5, 30 min pre-incubation, about 1.5 hours reaction, asterisk = mean
T1 construct: purchased R & D Systems 931AS
Procedure, shortened: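 BACE-1 enzyme pre-incubated 30 minutes with compound (7.5% DMSO) in 50 mM sodium acetate pH 4-4.5 with CHAPS, TritonX-100, EDTA. Rhodamine-quenched peptide substrate cleavage ran about 1.5 hours at room temperature; fluorescence read at 540/585 nm, giving IC50 or percent inhibition at one concentration.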

[1] = system: Aβ1-40 secreted from HEK293 cells stably expressing wildtype human APP695 protein (HEK-APPwt cells); proteolytic activity of BACE; experiment: Aβ Cell Based Assay (Aβ1-40 secretion, ELISA); settings: 6 hours incubation, reduction of Aβ1-40 secretion, asterisk = mean
Description: (§1) Aβ Cell Based Assay Procedure
(§2) In the following assay, the proteolytic activity of BACE in cells exposed to varying concentrations of a compound of interest is measured by observing the amount of Aβ1-40 secreted from HEK293 cells (Human Embryonic Kidney epithelial cell line) stably expressing wildtype human APP695 protein (HEK-APPwt cells).
(§3) HEK-APPwt cells were grown in high glucose DMEM (Dulbecco's Modified Eagles Medium SIGMA Cat. #D5796) supplemented with 25 mM HEPES (4-(2-hydroxyethyl)-1-piperazineethanesulfonic acid) (pH 7.4) (Invitrogen Cat. #15630-114), 0.1 mM NEAA (Non-essential Amino Acids) (BioWhittaker Cat. #13-114E), 10% fetal bovine serum (SIGMA Cat. #F4135) and 250 μg/mL hygromycin (Invitrogen Cat. #10687-010) in T-225 flasks at 37° C. with 5% CO2 and humidity control.
(§4) Test compounds were initially prepared in DMSO and diluted with DMEM media containing 2% FBS (Fetal bovine serum). Ten standard compound solutions were prepared having a range of concentrations. The standard compound solutions were used to determine the EC50 of the test compound. The range of concentrations chosen may depend on the compound's predicted potency.
(§5) To prepare cells for the assay, a flask containing HEK-APPwt cells were trypsinized briefly (1 mL trypsin), and once the cells detached, 4 mL of 10% FBS-DMEM was added to the flask. The detached cells were centrifuged at 900 rpm for 5 min to form a pellet.
(§6) The HEK-APPwt cell pellet was re-suspended with 10 mL DMEM media containing 2% FBS. 80 μL of the cell suspension was added to each well of a 96-well cell culture plate to give 100×10^4 cells/ml. 10 μL of a standard compound solution was added to each well of the 96-well cell culture plate followed by 10 μL of Alamar blue solution. The cells were incubated at 37° C. in a 5% CO2 incubator for 6 hours.
(§7) At the end of the incubation, the plates were removed from incubator, and the supernatant was collected. Aβ1-40 concentration in the medium was measured by using a commercial Aβ1-X ELISA kit (IBL, Japan Cat. #27729). Briefly, the ELISA plates were coated with an anti-human Aβ (N)(82E1) mouse IgG monoclonal antibody. A horseradish peroxidase conjugated anti-human Aβ11-28 mouse IgG monoclonal antibody was used for detection. The cell culture supernatant was diluted with EIA buffer+protease inhibitors (kit buffer containing protease inhibitors (1 mL PI/30 mL buffer)). A 100 μL aliquot of the diluted supernatant was added to each well of the ELISA plate and incubated for 6 hrs at 4° C. The ELISA plate was washed 8 times with phosphate buffered saline (PBS) containing 0.05% TWEEN 20.
(§8) A 100 μL of detection antibody was then added and incubated for 1 hour at 4° C. The plate was washed 8 times with PBS buffer containing 0.05% Tween 20 followed by addition of 100 μL of the chromogen tetramethylbenzidine (TMB). The plate was incubated in the dark at room temperature for about 30 min and a stop solution (1N H2SO4) was added.
(§9) The intensity of the color developed was measured at 450 nm. The optical density at 450 nm (OD450) is proportional to the concentration of human Aβ1-40 secreted by the cell. As a reference, N—[N-(3,5-difluorophenacetyl-L-alanyl)]—S-phenylglycine t-butyl ester (DAPT, a γ-secretase inhibitor) was used to indicate 100% inhibition of […]. Thus, the assay measures the ability of a compound of interest to reduce Aβ1-40 secretion. Compound potency is reported in Table 3 as the EC50 by calculating the percent inhibition at all concentration levels and the data were fit with non-linear curve fitting algorithm using GraphPad Prism.

[2] = Aβ Cell Based Assay (Aβ1-40 secretion, ELISA); parameters: species or system human; settings: Homo sapiens, HEK293; HEK-APPwt cells, 6 hours incubation, reduction of Aβ1-40 secretion; asterisk = mean
Description: as §1, §2, §3, §4, §5, §6, §7, §8, §9

T1 sequence (P56817 46-457 limits assumed): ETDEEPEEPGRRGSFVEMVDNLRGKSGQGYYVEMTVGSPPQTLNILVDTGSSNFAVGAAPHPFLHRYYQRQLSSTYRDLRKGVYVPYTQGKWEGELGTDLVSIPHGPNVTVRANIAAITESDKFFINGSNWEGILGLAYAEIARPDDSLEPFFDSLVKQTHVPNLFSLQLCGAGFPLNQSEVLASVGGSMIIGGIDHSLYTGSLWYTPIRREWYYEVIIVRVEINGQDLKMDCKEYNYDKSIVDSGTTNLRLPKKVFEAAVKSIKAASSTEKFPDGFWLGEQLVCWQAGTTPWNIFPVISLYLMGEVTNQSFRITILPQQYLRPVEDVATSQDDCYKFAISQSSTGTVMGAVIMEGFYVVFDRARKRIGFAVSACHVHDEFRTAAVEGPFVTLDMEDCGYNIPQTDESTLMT

SMILES | IC50 (BACE-1 enzyme) | EC50 [1] | EC50 [2]
O=C(Nc1nc2cc(-c3cccc(OC(F)(F)F)c3)ccc2[nH]1)c1cn2nc(OCCO)ccc2n1 [Example 143, 6-(2-Hydroxy-ethoxy)-imidazol[1,2-b]pyridazine-2-carboxylic acid [5-(3-trifluoromethoxy-phenyl)-1H-benzoimidazol-2-yl]-amide] | 0.172 µM | 1.07 µM | 
O=C(Nc1nc2cc(-c3cc(F)cc(Cl)c3)ccc2[nH]1)c1cn2nc(OC[C@@H]3CCCO3)ccc2n1 [Example 147, 6-[(S)-1-(Tetrahydro-furan-2-yl)methoxy]-imidazol[1,2-b]pyridazine-2-carboxylic acid [5-(3-chloro-5-fluoro-phenyl)-1H-benzoimidazol-2-yl]-amide] | 0.207 µM |  | 0.27 µM
